In US5977319A, “Specific binding members for estradiol; materials and methods” (Cambridge Antibody Technology Limited, priority 1997, dated 1999):
“Also recorded” adds a separate entry of the source.

Assays:
[1] = test system: antibody D12 single-chain Fv (VH SEQ ID NO:2, VL SEQ ID NO:12; clone 1C with Ala80-Val80 in the lambda light chain); test: Equilibrium dialysis, competition of steroids with tritium labelled estradiol for antibody D12; format: binding, human; settings: for Kd: D12 13.3 nM, 4 nM tritium labelled estradiol, competing steroid 100 nM to 100 μM, competitive inhibition assumed, read-out: affinities (dissociation constants) for cross-reactive steroids
Procedure: Dissociation constants were measured by equilibrium dialysis using conditions described for testosterone and estriol (FIG. 3 and the description of FIG. 3 given below). All steroids were tested at concentrations ranging from 10 nM to their solubility limits in PBS. The dissociation constants of antibody D12 for these compounds were calculated assuming that they were competitive inhibitors of estradiol binding.
Antibody D12 (13.3 nM) was incubated with 4 nM tritium labelled estradiol, plus competing steroid (100 nM to 100 μM). Pooled data from 3 experiments. Equilibrium dialysis was carried out for 20 hr at 22° C. in phosphate buffered saline with a membrane having a 12 kDa exclusion limit.
Antibody D12 (at a concentration of 13.3 nM) was incubated for 2 h with a mixture containing both tritium labelled estradiol (4 nM) and the competing steroid (100 nM to 100 μM), before equilibrium dialysis. The binding of other steroids to D12 antibody was quantified assuming competitive inhibition of estradiol binding. Data was analyzed with proprietary software (FIG.P package: Elsevier Biosoft).

[2] = test system: antibody D12 single-chain Fv (VH SEQ ID NO:2, VL SEQ ID NO:12); test: ELISA, inhibition of antibody binding to BSA-estradiol by soluble steroid; set-up: species or system human
Procedure: An ELISA-based screening method was used to rank different clones on the basis of their relative equilibrium dissociation constants for estradiol. In this assay, crude culture supernatant was equilibrated with soluble steroids at a range of concentrations (10 μM, 1 μM, 100 nM and zero estradiol) then applied to ELISA wells coated with […]. Affinity for the soluble steroid was then indicated by a reduction in ELISA signal intensity due to the antibody being in complex with the soluble ligand and unavailable for binding to the plate. This gives a reduction in ELISA signal.
The binding properties of other steroids were investigated by measuring their ability to compete with estradiol for binding to D12 antibody. This was investigated using the ELISA based screening method (Example 2b) and any cross-reacting compounds were investigated further by equilibrium dialysis.
Culture supernatant from the antibody clone D12 was equilibrated with soluble steroid at a range of concentrations from 5 nM to 100 mM (or the limit solubility of the steroid), then transferred to an ELISA plate coated with BSA-estradiol. The ELISA plate was then processed as for a standard phage ELISA assay. Affinity for the soluble competing steroid was then indicated by a reduction in ELISA signal intensity due to the antibody being in complex with the soluble ligand and unavailable for binding to the plate.

[3] = target: mouse monoclonal antibody DB3; settings: read-out: dissociation constant; cited from earlier work
[4] = target: progesterone-binding antibody from a non immunised murine repertoire; settings: cited from earlier work
[5] = target: antibody D12 single-chain Fv (VH SEQ ID NO:2, VL SEQ ID NO:12; clone 1C with Ala80-Val80 in the lambda light chain); test: Equilibrium dialysis, binding of tritium labelled estradiol to antibody D12; set-up: species or system human; settings: 22° C., PBS, 20 hr, read-out: dissociation constant for estradiol
Procedure: Antibody diluted 4-fold to 200-fold was incubated with 50 pM tritium labelled estradiol plus unlabelled estradiol giving total estradiol concentrations from 100 pM to 100 μM. […] Equilibrium dialysis was carried out for 20 hr at 22° C. in phosphate buffered saline with a membrane having a 12 kDa exclusion limit.
Equilibrium dialysis was carried out at 22° C. in phosphate-bufferedsaline (PBS) using a microdialyzer (Hoefer) with a membrane having a 12 kDa exclusion limit. […] Antibody diluted 4-fold to 200-fold (from 0.7 nM to 33 nM, based on concentrations calculated from binding data) was incubated with 50 pM labelled estradiol (Amersham, tritium-labelled at positions 2,4,6,7,16,17) plus unlabelled estradiol to give total estradiol concentrations from 100 pM-100 μM. Mixtures were equilibrated for 2 h at 22° C. and dialysed against PBS for 20 h with constant mixing, before taking samples from each chamber for measurement of radioactivity.
Over the range of ligand concentrations necessary for affinity measurement (up to 100 nM), less than 10% of labelled estradiol bound non-specifically. After subtraction of non-specific binding, the dissociation constant (Kd) of estradiol binding to antibody D12 was calculated from equilibrium dialysis data using a non-linear least-squaresfit, assuming a single class of binding sites.

[6] = soluble steroid 5 nM to 100 mM (or the limit solubility of the steroid)

C[C@]12CC[C@H]3[C@@H](CCC4=CC(=O)CC[C@@]43C)[C@@H]1CC[C@@H]2O [testosterone]
selectivity for estradiol over the steroid [1]: approximately 1,000 fold
Kd [1]: 15 µM
inhibition of binding to BSA-estradiol in ELISA ([2]; soluble steroid at 30 μM): inhibited estradiol binding; also recorded: showed inhibition

CC(=O)[C@H]1CC[C@H]2[C@@H]3CCC4=CC(=O)CC[C@]4(C)[C@H]3CC[C@]12C [progesterone]
Kd [3]: ~0.001 µM
inhibition of binding to BSA-estradiol in ELISA ([2]; soluble steroid at 100 μM): inhibited estradiol binding; also recorded: inhibited only at very high concentrations
dissociation constant [4]: only micromolar

C[C@]12CCC(=O)C[C@@H]1CC[C@@H]1[C@@H]2CC[C@]2(C)[C@@H](O)CC[C@@H]12 [dihydrotestosterone]
inhibition of binding to BSA-estradiol in ELISA ([2]; soluble steroid at 30 μM): showed inhibition
inhibition of binding to BSA-estradiol in ELISA ([2]; soluble steroid at 30 μM, listed as Dihydrotestosterone): inhibited estradiol binding

C[C@]12CC[C@@H]3c4ccc(O)cc4CC[C@H]3[C@@H]1C[C@H](O)[C@@H]2O [16-epiestriol]
Kd [1]: 163 µM
inhibition of binding to BSA-estradiol in ELISA ([2]; soluble steroid at 100 μM): inhibited estradiol binding; also recorded: inhibited only at very high concentrations

C[C@]12CC[C@@H]3c4ccc(O)cc4CC[C@H]3[C@@H]1CC[C@@H]2O [estradiol, 1,3,5.estratriene 3,17 β-diol]
Kd [5]: 0.0037 µM

C[C@]12CC[C@@H]3c4ccc(O)cc4CC[C@H]3[C@@H]1C[C@@H](O)[C@@H]2O [Estriol, estriol]
inhibition of binding to BSA-estradiol in ELISA ([2]; soluble steroid at 30 μM): did not inhibit estradiol binding

C[C@]12CC[C@@H]3c4ccc(O)cc4CC[C@H]3[C@@H]1C[C@@H](O)[C@H]2O [17-epiestriol]
inhibition of binding to BSA-estradiol in ELISA ([2]; soluble steroid at 100 μM): inhibited estradiol binding; also recorded: inhibited only at very high concentrations

C[C@]12CC[C@@H]3c4ccc(O[C@@H]5O[C@H](C(=O)O)[C@@H](O)[C@H](O)[C@H]5O)cc4CC[C@H]3[C@@H]1C[C@@H](O)[C@@H]2O [estriol-3-β-D-glucuronide]
inhibition of binding to BSA-estradiol in ELISA [2, 6]: neither cholesterol nor estriol-3-β-D-glucuronide inhibited
inhibition of binding to BSA-estradiol in ELISA ([2]; soluble steroid 5 nM to 100 mM (or the limit solubility of the steroid), listed as Estriol-3-β-D-glucuronide): did not show any inhibition

C[C@]12CC[C@@H]3c4ccc(OS(=O)(=O)O)cc4CC[C@H]3[C@@H]1C[C@@H](O)[C@@H]2O [Estriol-3-sulphate]
inhibition of binding to BSA-estradiol in ELISA ([2]; soluble steroid at 100 μM): inhibited estradiol binding
inhibition of binding to BSA-estradiol in ELISA ([2]; soluble steroid at 100 μM, listed as Estriol-3 sulphate): inhibited only at very high concentrations

CC(C)CCC[C@@H](C)[C@H]1CC[C@H]2[C@@H]3CC=C4C[C@@H](O)CC[C@]4(C)[C@H]3CC[C@]12C [cholesterol]
inhibition of binding to BSA-estradiol in ELISA [2, 6]: neither cholesterol nor estriol-3-β-D-glucuronide inhibited; also recorded: did not show any inhibition
